Laboratory results: patent publication US9815864B2, “Substituted nucleosides, nucleotides and analogs thereof” (Alios BioPharma, Inc., priority 2013, dated 2017)
Where two headings read alike, the source gives them in different places.

What was measured:
[1] = system: Murine norovirus (MNV-1); test: Norovirus MNV-1 antiviral assay (CPE reduction, CellTiter-Glo, RAW 264.7 cells); assay type: cell-based
[2] = system: NV genome in HG23 cells; test: Norovirus replicon assay (HG23 cells, NV genome by qRT-PCR); assay type: cell-based, genogroup 1 norovirus
[3] = target: Norovirus polymerase (NoVpol, genotype II) (Lordsdale virus, UniProt P54634); test: biochemical
Norovirus polymerase (NoVpol, genotype II), sequence (P54634 1190-1699 limits assumed): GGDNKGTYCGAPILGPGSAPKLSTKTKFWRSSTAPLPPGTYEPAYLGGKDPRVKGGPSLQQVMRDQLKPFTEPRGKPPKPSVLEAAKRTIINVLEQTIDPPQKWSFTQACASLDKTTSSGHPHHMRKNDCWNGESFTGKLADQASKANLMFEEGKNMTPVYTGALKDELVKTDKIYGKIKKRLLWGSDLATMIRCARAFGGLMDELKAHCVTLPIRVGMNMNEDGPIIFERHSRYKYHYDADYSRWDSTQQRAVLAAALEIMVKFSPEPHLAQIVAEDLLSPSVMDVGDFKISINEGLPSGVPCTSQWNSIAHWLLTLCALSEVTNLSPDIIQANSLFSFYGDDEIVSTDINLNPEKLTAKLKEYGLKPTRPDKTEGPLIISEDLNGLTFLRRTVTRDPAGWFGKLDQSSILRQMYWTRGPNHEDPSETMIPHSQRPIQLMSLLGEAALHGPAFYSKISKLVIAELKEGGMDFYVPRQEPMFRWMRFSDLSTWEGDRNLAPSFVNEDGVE

[4] = RAW 264.7 cells infected with MNV-1 (MOI of 0.001), 3 days, read-out: EC50
[5] = HG23 cells, reduction of NV genome vs mock-medium at 48 h, read-out: EC50
[6] = Norovirus, HG23 cells, reduction of NV genome vs mock-medium at 48 h, read-out: EC50
[7] = RAW264.7, 72 h, RAW 264.7 cells infected with MNV-1 (MOI of 0.001), 3 days, read-out: EC50
[8] = 50 nM recombinant enzyme, 2.5 hours at 30° C., read-out: IC50

| SMILES | EC50 [2, 6] [µM] | IC50 [3, 8] [µM] | other results |
| --- | --- | --- | --- |
| CCOc1nc(N)nc2c1ncn2[C@@H]1O[C@](F)(CO[P@@](=O)(N[C@@H](C)C(=O)OC2CCCCC2)Oc2ccccc2)[C@@H](O)[C@@]1(C)F [Compound 141a] |  |  | EC50 [1, 4]: 1 to 10 µM; EC50 [2, 5]: 1 to 10 µM |
| [N-]=[N+]=N[C@]1(CO)O[C@@H](n2ccc(N)nc2=O)[C@@H](O)[C@@H]1O [Compound 266a] | 1 to 10 |  |  |
| C#C[C@@]1(O)[C@H](O)[C@](CO)(CCl)O[C@H]1n1ccc(=O)[nH]c1=O [Compound 344a] | 10 to 100 |  |  |
| N#C[C@@]1(n2ccc(N)nc2=O)O[C@@](CO)(CF)[C@@H](O)[C@H]1O [Compound 376a] |  |  | EC50 [1, 4]: 10 to 100 µM |
| CC(C)OC(=O)OCOP(=O)(OCOC(=O)OC(C)C)OC[C@@]1(CF)O[C@@H](n2ccc(=O)[nH]c2=O)[C@](C)(O)[C@@H]1O [Compound 156a] | < 1 |  | EC50 [1, 7]: 1 to 10 µM |
| C#C[C@]1(F)[C@H](n2cnc3c(OCC)nc(N)nc32)O[C@](F)(COP(=O)(N[C@@H](C)C(=O)OC2CCCCC2)Oc2ccccc2)[C@H]1O (stereo partly drawn) [Compound 147a] |  |  | EC50 ([2]; Norovirus, HG23, 48 h): < 1 µM |
| CCOc1nc(N)nc2c1ncn2[C@@H]1O[C@](CF)(COP(=O)(N[C@@H](C)C(=O)OC2CCCCC2)Oc2ccccc2)[C@@H](O)[C@@]1(C)O (stereo partly drawn) [Compound 153a] |  |  | EC50 ([2]; Norovirus, HG23, 48 h): < 1 µM |
| C[C@@]1(O)[C@H](O)[C@](CO)(CF)O[C@H]1n1ccc(N)nc1=O [Compound 338a] | 10 to 100 |  |  |
| C#C[C@@]1(O)[C@H](O)[C@@H](CO)O[C@H]1n1ccc2c(N)ncnc21 [Compound 291a] | < 1 |  | EC50 [1, 7]: < 1 µM |
| CCOc1nc(N)nc2c1ncn2[C@@H]1O[C@](F)(COP(=O)(N[C@@H](C)C(=O)OC2CCCCC2)Oc2ccccc2)[C@@H](O)[C@@]1(C)O (stereo partly drawn) [Compound 128a] |  |  | EC50 ([2]; Norovirus, HG23, 48 h): 1 to 10 µM |
| CCOc1nc(N)nc2c1ncn2[C@@H]1O[C@]2(F)CO[P@@](=O)(OC(C)C)O[C@H]2[C@@]1(C)O [Compound 145a] |  |  | EC50 [1, 7]: 10 to 100 µM |
| CCOc1nc(N)nc2c1ncn2[C@@H]1O[C@](F)(COP(=O)(N[C@@H](C)C(=O)OC2CCCCC2)Oc2ccccc2)[C@@H](F)[C@@]1(C)O (stereo partly drawn) [Compound 134a] |  |  | EC50 ([2]; Norovirus, HG23, 48 h): 1 to 10 µM |
| CCOc1nc(N)nc2c1ncn2[C@@H]1O[C@]2(F)CO[P@](=O)(OC(C)C)O[C@H]2[C@@]1(C)O [Compound 144a] | 1 to 10 |  | EC50 [1, 7]: 10 to 100 µM |
| Nc1ccn([C@@H]2O[C@@](CO)(CCl)[C@@H](O)[C@H]2O)c(=O)n1 [Compound 271a] | 10 to 100 |  | EC50 [1, 7]: 10 to 100 µM |
| [N-]=[N+]=NC[C@]1(CO)O[C@@H](n2ccc(N)nc2=O)[C@H](F)[C@@H]1O [Compound 113a] | 1 to 10 |  | EC50 [1, 7]: 10 to 100 µM |
| [N-]=[N+]=N[C@]1(CO)O[C@@H](n2ccc(N)nc2=O)[C@H](O)[C@@H]1O [Compound 381a] | 10 to 100 |  |  |
| [N-]=[N+]=N[C@]1(CO)O[C@@H](n2ccc(N)nc2=O)C(F)(F)[C@@H]1O [Compound 380a] | 1 to 10 |  |  |
| C#C[C@]1(O)[C@H](n2ccc(=O)[nH]c2=O)O[C@](F)(COP(=O)(OCOC(=O)OC(C)C)OCOC(=O)OC(C)C)[C@H]1O [Compound 208a] | < 1 |  | EC50 [1, 7]: 10 to 100 µM |
| CCOc1nc(N)nc2c1ncn2[C@@H]1O[C@]2(F)CO[P@](=O)(OC(C)C)O[C@H]2[C@@]1(C)F [Compound 149a] |  |  | EC50 [1, 4]: 10 to 100 µM; EC50 [2, 5]: 1 to 10 µM |
| C#C[C@]1(O)[C@H](n2ccc(=O)[nH]c2=O)O[C@](F)(COP(=O)(N[C@@H](C)C(=O)OC2CCCCC2)Oc2ccccc2)[C@H]1O (stereo partly drawn) [Compound 131a] |  |  | EC50 ([1]; MNV-1, RAW264.7, 72 h): 10 to 100 µM; EC50 ([2]; Norovirus, HG23, 48 h): < 1 µM |
| CCOc1nc(N)nc2c1ncn2[C@@H]1O[C@](F)(COP(=O)(OCOC(=O)OC(C)C)OCOC(=O)OC(C)C)[C@@H](O)[C@@]1(C)O [Compound 209a] | < 1 |  | EC50 [1, 7]: 1 to 10 µM |
| C#C[C@]1(O)[C@H](n2cnc3c(=O)[nH]c(N)nc32)O[C@](F)(CO)[C@H]1F [Compound 146a] |  | < 1 | EC50 [1, 7]: 10 to 100 µM |
| C#C[C@@]1(O)[C@H](O)[C@@](CF)(COP(=O)(OCOC(=O)OC(C)C)OCOC(=O)OC(C)C)O[C@H]1n1cnc2c(N)ncnc21 [Compound 168a] | < 1 |  | EC50 [1, 7]: 10 to 100 µM |
| Nc1ccn([C@@H]2O[C@@](CO)(CF)[C@@H](O)C2(F)F)c(=O)n1 [Compound 179a] | 1 to 10 |  | EC50 [1, 7]: < 1 µM |

| SMILES | EC50 [2, 6] [µM] | IC50 [3, 8] [µM] | other results |
| --- | --- | --- | --- |
| CCOc1nc(N)nc2c1ncn2[C@@H]1O[C@](F)(COP(=O)(OCOC(=O)OC(C)C)OCOC(=O)OC(C)C)[C@@H](O)[C@@]1(C)F [Compound 188a] | < 1 |  | EC50 [1, 7]: 1 to 10 µM |
| C#C[C@@]1(O)[C@H](O)[C@@H](COP(=O)(O)OP(=O)(O)OP(=O)(O)O)O[C@H]1n1cnc2c(=O)[nH]c(N)nc21 [Compound 290a] |  | < 1 |  |
| C[C@@]1(O)[C@H](O)[C@@](CF)(COP(=O)(O)OP(=O)(O)OP(=O)(O)O)O[C@H]1n1ccc2c(N)ncnc21 [Compound 351a] |  | < 1 |  |
| O=c1ccn([C@@H]2O[C@](CCl)(COP(=O)(O)OP(=O)(O)OP(=O)(O)O)[C@@H](O)C2(F)F)c(=O)[nH]1 [Compound 222a] |  | 10 to 100 |  |
| O=c1ccn([C@@H]2O[C@](CF)(COP(=O)(O)OP(=O)(O)OP(=O)(O)O)[C@@H](O)[C@]2(O)CF)c(=O)[nH]1 [Compound 353a] |  | 1 to 10 |  |
| Nc1ccn([C@@H]2O[C@@](CO)(CF)[C@@H](O)[C@H]2F)c(=O)n1 [Compound 23a] | 10 to 100 |  | EC50 [1, 7]: 1 to 10 µM |
| C#C[C@]1(O)[C@H](n2cnc3c(OCC)nc(N)nc32)O[C@](F)(CO[P@@](=O)(N[C@@H](C)C(=O)OC2CCCCC2)Oc2ccccc2)[C@H]1O [Compound 143a] |  |  | EC50 [2, 5]: 1 to 10 µM |
| O=c1ccn([C@@H]2O[C@](CF)(COP(=O)(O)OP(=O)(O)OP(=O)(O)O)[C@@H](O)[C@H]2F)c(=O)[nH]1 [Compound 111a] |  | < 1 |  |
| C#C[C@]1(O)[C@H](n2cnc3c(OCC)nc(N)nc32)O[C@](F)(CO[P@](=O)(N[C@@H](C)C(=O)OC2CCCCC2)Oc2ccccc2)[C@H]1O [Compound 142a] |  |  | EC50 [2, 5]: 1 to 10 µM |
| C=CC[C@@]1(O)[C@H](O)[C@@](CF)(COP(=O)(O)OP(=O)(O)OP(=O)(O)O)O[C@H]1n1ccc(=O)[nH]c1=O [Compound 350a] |  | 1 to 10 |  |
| C=C[C@]1(COP(=O)(O)OP(=O)(O)OP(=O)(O)O)O[C@@H](n2cnc3c(=O)[nH]c(N)nc32)[C@H](F)[C@@H]1O [Compound 34a] |  | < 1 |  |
| C=C[C@]1(O)[C@H](n2ccc(=O)[nH]c2=O)O[C@](F)(COP(=O)(O)OP(=O)(O)OP(=O)(O)O)[C@H]1O [Compound 330a] |  | 1 to 10 |  |
| Nc1nc2c(ncn2[C@@H]2O[C@](CCl)(COP(=O)(O)OP(=O)(O)OP(=O)(O)O)[C@@H](O)[C@H]2F)c(=O)[nH]1 [Compound 116a] |  | 1 to 10 |  |
| C=C[C@]1(COP(=O)(O)OP(=O)(O)OP(=O)(O)O)O[C@@H](n2ccc(N)nc2=O)C(F)(F)[C@@H]1O [Compound 224a] |  | 1 to 10 |  |
| C[C@@]1(O)[C@H](O)[C@@](CN=[N+]=[N-])(COP(=O)(O)OP(=O)(O)OP(=O)(O)O)O[C@H]1n1ccc(=O)[nH]c1=O [Compound 346a] |  | 1 to 10 |  |
| C#C[C@]1(F)[C@H](n2cnc3c(OCC)nc(N)nc32)O[C@](F)(COP(=O)(N[C@@H](C)C(=O)OC2CCCCC2)Oc2ccccc2)[C@H]1O (stereo partly drawn) [Compound 148a] |  |  | EC50 ([2]; HG23 cells, reduction of NV genome vs mock-medium at 48 h): < 1 µM |
| CCC[C@]1(CO)O[C@@H](n2ccc(N)nc2=O)[C@H](F)[C@@H]1O [Compound 21a] |  | 1 to 10 |  |
| C=C[C@]1(COP(=O)(O)OP(=O)(O)OP(=O)(O)O)O[C@@H](n2ccc(N)nc2=O)[C@H](F)[C@@H]1O [Compound 36b] |  | 1 to 10 |  |
| O=c1ccn([C@@H]2O[C@](CCl)(COP(=O)(O)OP(=O)(O)OP(=O)(O)O)[C@@H](O)[C@H]2F)c(=O)[nH]1 [Compound 56a] |  | 1 to 10 |  |
| C[C@]1(O)[C@H](n2ccc(=O)[nH]c2=O)O[C@](C)(COP(=O)(O)OP(=O)(O)OP(=O)(O)O)[C@H]1O [Compound 217a] |  | < 1 |  |
| C[C@]1(O)C(n2ccc(=O)[nH]c2=O)O[C@H](COP(=O)(O)OP(=O)(O)OP(=O)(O)O)[C@H]1O (stereo partly drawn) [Compound 260a] |  |  | IC50 [3]: 1 to 10 µM |
| CCOc1nc(N)nc2c1ncn2[C@@H]1O[C@](F)(CO[P@](=O)(N[C@@H](C)C(=O)OC2CCCCC2)Oc2ccccc2)[C@@H](O)[C@@]1(C)F [Compound 140a] |  |  | EC50 ([1]; MNV-1, RAW264.7, 72 h): 1 to 10 µM; EC50 ([2]; Norovirus, HG23, 48 h): < 1 µM |
| C#C[C@@]1(O)[C@H](O)[C@@](CCl)(COP(=O)(O)OP(=O)(O)OP(=O)(O)O)O[C@H]1n1cnc2c(N)ncnc21 [Compound 342a] |  | < 1 |  |
